Test results reported in ChEMBL document CHEMBL5223100, “Homobivalent, Trivalent, and Covalent PROTACs: Emerging Strategies for Protein Degradation” (J Med Chem, 2022).

Assays:
[1] = test system: MV4-11; assay: Antiproliferative activity against human MV4-11 cells
[2] = target: Bromodomain-containing protein 2 (Homo sapiens, UniProt P25440); assay: Induction of BRD2 degradation in HEK293 cells after 4 hrs; format: cell-based
[3] = target: Bromodomain-containing protein 3 (Homo sapiens, UniProt Q15059); assay: Induction of BRD3 degradation in HEK293 cells after 4 hrs; format: cell-based
[4] = target: T1, Bromodomain-containing protein 4 (Homo sapiens, UniProt O60885); assay: Induction of BRD4 degradation in HEK293 cells after 4 hrs; format: cell-based
[5] = target: Transcription intermediary factor 1-alpha (Homo sapiens, UniProt O15164); assay: Inhibition of His-tagged TRIM24 (unknown origin) expressed in Escherichia coli BL21(DE3)pLysS competent cells using biotinylated-H3K23ac peptide as substrate incubated for 30 mins by Alphascreen assay
[6] = target: Transcription intermediary factor 1-alpha (Homo sapiens) (UniProt O15164); assay: Induction of TRIM24 degradation in HEK293FT cells assessed as maximum degradation at 5 uM relative to control; format: cell-based
[7] = target: T2, von Hippel-Lindau disease tumor suppressor (Homo sapiens, UniProt P40337); assay: Binding affinity to human VHL by isothermal calorimetric assay
Target sequence in this assay (P40337 whole entry): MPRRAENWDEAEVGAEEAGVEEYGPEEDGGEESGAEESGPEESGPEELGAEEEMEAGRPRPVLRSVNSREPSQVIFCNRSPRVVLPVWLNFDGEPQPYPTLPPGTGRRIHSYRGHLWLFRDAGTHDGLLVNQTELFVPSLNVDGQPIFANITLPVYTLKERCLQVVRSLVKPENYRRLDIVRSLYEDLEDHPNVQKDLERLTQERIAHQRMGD

[8] = target: T2, von Hippel-Lindau disease tumor suppressor; assay: Induction of pVHL30 degradation in human HeLa cells incubated for 4 hrs; format: cell-based
[9] = test system: SU-DHL-1; assay: Antiproliferative activity against human SU-DHL-1 cells; format: functional, cell-based
[10] = target: ALK tyrosine kinase receptor (Homo sapiens) (UniProt Q9UM73); assay: Induction of ALK degradation in human SU-DHL-1 cells assessed as maximum degradation at 3 uM after 12 hrs relative to control; format: cell-based
[11] = target: ALK tyrosine kinase receptor (Homo sapiens) (UniProt Q9UM73); assay: Induction of ALK degradation in human SU-DHL-1 cells assessed as maximum degradation at 100 nM pretreated with S-Ac-GSH followed by compound addition and measured after 12 hrs relative to control; format: cell-based
[12] = target: T3, Tyrosine-protein kinase BTK (Homo sapiens, UniProt Q06187); assay: Induction of BTK degradation in human Ramos cells assessed as maximum degradation at 300 nM relative to control; format: cell-based
[13] = test system: HCC827; assay: Antiproliferative activity against human HCC827 cells harboring EGFRDel19 mutant; format: functional, cell-based
[14] = test system: NCI-H1975; assay: Antiproliferative activity against human NCI-H1975 cells harboring EGFR L858R/T790M double mutant; format: functional, cell-based
[15] = target: von Hippel-Lindau disease tumor suppressor/Epidermal growth factor receptor (Homo sapiens, UniProt P00533+P40337); assay: Protac activity at VHL/EGFR Del19 mutant in human HCC827 cells; format: cell-based
[16] = test system: von Hippel-Lindau disease tumor suppressor/Epidermal growth factor receptor (Homo sapiens), P00533+P40337 [UNDEFINED MUTATION]; assay: Protac activity at VHL/EGFR Del19 mutant in human HCC827 cells assessed as maximum degradation relative to control; format: cell-based
[17] = test system: HCC827; assay: Antitumor activity against human HCC827 cells xenografted in mouse assessed as tumor growth inhibition at 30 mg/kg; format: functional; conditions: read-out: TGI
[18] = target: T3, Tyrosine-protein kinase BTK; assay: Induction of BTK degradation in human MINO cells; format: cell-based
[19] = target: T3, Tyrosine-protein kinase BTK; assay: Induction of BTK degradation in human MINO cells assessed as maximum degradation relative to control; format: cell-based
[20] = test system: HeLa; assay: Antiproliferative activity against human HeLa cells; format: functional, cell-based
[21] = target: T1, Bromodomain-containing protein 4; assay: Induction of BRD4 degradation in human HeLa cells assessed as maximum degradation at 10 nM after 12 hrs relative to control; format: cell-based
[22] = target: ALK tyrosine kinase receptor (Homo sapiens) (UniProt Q9UM73); assay: Induction of ALK degradation in human SU-DHL-1 cells assessed as maximum degradation at 30 nM after 12 hrs relative to control; format: cell-based
[23] = target: T4, Protein cereblon (Homo sapiens, UniProt Q96SW2); assay: Induction of CRBN degradation in human HeLa cells incubated for 4 hrs; format: cell-based
[24] = target: T4, Protein cereblon; assay: Induction of CRBN degradation in human HeLa cells at 1 uM incubated for 4 hrs relative to control; format: cell-based
[25] = target: T1, Bromodomain-containing protein 4; assay: Induction of BRD4 degradation in human HeLa cells assessed as maximum degradation at 30 nM after 12 hrs relative to control; format: cell-based
[26] = test system: HFF-1; assay: Antiproliferative activity against human HFF-1 cells; format: functional, cell-based

ALK tyrosine kinase receptor (Homo sapiens), sequence (Q9UM73 19-1620 limits assumed): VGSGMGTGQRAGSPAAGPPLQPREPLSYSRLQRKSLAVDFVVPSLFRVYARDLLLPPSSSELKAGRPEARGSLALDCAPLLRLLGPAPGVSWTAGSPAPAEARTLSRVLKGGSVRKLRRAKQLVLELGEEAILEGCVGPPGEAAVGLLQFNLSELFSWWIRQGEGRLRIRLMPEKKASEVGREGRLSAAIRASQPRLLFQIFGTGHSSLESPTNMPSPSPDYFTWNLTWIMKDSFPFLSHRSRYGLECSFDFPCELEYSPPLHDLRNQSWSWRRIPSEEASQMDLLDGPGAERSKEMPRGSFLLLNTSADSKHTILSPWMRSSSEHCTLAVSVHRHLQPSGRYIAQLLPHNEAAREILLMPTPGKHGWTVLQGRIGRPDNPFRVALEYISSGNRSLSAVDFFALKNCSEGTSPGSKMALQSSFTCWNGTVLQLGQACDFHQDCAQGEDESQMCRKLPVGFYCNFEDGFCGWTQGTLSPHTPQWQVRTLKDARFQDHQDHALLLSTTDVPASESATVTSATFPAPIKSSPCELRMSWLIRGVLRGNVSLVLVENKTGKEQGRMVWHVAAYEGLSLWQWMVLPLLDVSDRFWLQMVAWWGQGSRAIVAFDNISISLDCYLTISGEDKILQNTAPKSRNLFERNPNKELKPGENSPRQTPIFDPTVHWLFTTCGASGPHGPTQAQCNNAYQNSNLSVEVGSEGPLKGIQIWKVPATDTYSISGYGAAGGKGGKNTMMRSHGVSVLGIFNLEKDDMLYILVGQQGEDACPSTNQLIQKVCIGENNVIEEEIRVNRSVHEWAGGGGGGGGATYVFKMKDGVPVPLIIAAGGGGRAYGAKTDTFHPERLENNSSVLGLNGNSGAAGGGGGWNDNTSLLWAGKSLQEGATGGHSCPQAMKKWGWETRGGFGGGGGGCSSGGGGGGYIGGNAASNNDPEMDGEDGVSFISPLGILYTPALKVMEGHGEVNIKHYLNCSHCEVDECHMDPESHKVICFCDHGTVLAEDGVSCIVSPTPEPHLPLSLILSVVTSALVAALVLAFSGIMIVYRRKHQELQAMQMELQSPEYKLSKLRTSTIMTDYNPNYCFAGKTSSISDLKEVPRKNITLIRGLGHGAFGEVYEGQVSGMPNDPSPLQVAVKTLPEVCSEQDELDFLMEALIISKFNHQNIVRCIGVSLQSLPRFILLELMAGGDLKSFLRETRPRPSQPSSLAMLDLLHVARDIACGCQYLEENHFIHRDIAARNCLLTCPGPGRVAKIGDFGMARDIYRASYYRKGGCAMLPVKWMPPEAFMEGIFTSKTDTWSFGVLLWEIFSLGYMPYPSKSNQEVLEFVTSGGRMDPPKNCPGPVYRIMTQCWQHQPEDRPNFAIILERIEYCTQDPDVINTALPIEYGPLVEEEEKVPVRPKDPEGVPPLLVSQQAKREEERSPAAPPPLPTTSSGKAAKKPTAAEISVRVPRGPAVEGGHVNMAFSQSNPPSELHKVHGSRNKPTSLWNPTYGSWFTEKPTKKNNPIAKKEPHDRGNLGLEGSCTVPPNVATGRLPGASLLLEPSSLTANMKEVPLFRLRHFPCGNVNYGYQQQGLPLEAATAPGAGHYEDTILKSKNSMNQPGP
T3 sequence (Q06187 whole entry): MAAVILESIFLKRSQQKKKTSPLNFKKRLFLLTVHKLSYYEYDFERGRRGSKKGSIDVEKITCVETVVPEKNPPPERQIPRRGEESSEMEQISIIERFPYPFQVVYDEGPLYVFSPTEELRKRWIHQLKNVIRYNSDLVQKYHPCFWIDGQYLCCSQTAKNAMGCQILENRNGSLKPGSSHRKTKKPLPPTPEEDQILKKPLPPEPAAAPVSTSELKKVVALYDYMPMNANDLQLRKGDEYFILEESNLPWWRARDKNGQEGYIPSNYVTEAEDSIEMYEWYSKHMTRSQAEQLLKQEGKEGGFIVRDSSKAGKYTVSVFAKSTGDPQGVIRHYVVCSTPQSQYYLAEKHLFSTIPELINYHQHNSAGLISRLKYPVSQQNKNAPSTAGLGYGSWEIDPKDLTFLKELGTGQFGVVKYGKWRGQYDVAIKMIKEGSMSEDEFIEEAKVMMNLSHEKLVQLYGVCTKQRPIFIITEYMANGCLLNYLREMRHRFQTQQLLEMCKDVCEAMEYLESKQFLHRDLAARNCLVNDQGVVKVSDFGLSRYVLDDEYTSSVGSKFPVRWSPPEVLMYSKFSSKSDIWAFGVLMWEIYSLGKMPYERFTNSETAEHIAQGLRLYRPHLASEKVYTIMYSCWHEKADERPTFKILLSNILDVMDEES
Transcription intermediary factor 1-alpha, sequence (O15164 whole entry): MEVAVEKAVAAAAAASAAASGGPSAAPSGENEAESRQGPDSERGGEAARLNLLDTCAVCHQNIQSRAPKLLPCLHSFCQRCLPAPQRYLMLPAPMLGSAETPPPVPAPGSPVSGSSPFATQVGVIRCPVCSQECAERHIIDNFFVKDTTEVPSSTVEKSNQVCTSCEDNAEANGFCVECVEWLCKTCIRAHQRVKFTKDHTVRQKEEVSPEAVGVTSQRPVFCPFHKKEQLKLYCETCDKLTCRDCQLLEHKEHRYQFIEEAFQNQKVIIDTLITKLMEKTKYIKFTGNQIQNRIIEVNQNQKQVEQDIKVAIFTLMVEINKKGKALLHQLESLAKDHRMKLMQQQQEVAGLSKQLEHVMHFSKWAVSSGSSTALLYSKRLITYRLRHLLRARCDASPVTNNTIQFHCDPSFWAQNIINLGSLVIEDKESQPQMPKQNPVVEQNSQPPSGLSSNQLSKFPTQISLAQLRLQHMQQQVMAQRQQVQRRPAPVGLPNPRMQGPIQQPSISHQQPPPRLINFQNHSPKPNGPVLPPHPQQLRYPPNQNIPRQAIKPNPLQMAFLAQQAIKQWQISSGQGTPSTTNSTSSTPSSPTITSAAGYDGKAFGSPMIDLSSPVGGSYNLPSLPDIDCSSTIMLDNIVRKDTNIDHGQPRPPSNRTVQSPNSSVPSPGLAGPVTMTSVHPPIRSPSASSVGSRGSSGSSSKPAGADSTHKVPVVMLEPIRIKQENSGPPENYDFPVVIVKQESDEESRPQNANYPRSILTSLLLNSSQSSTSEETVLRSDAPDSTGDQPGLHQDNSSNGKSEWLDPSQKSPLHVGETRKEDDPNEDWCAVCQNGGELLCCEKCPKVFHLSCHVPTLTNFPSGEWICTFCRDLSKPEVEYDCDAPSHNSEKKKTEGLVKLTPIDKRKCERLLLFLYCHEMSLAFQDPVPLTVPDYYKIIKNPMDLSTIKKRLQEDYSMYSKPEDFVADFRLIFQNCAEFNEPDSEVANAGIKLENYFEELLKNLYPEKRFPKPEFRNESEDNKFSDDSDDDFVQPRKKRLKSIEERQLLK
T4 sequence (Q96SW2 whole entry): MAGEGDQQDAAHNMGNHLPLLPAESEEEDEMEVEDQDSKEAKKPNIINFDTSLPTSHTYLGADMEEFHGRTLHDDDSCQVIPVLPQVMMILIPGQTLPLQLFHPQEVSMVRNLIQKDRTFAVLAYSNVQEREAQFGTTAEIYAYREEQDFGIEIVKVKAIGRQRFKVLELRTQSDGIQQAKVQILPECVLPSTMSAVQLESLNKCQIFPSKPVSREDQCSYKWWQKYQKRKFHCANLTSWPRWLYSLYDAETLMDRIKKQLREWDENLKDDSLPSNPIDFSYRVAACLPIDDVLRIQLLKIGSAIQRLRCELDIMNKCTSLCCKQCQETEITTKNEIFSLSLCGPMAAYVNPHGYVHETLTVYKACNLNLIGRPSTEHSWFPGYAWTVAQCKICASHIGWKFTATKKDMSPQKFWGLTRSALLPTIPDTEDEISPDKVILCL
Transcription intermediary factor 1-alpha (Homo sapiens), sequence (O15164 whole entry): as the sequence (O15164 whole entry) above
Bromodomain-containing protein 3, sequence (Q15059 whole entry): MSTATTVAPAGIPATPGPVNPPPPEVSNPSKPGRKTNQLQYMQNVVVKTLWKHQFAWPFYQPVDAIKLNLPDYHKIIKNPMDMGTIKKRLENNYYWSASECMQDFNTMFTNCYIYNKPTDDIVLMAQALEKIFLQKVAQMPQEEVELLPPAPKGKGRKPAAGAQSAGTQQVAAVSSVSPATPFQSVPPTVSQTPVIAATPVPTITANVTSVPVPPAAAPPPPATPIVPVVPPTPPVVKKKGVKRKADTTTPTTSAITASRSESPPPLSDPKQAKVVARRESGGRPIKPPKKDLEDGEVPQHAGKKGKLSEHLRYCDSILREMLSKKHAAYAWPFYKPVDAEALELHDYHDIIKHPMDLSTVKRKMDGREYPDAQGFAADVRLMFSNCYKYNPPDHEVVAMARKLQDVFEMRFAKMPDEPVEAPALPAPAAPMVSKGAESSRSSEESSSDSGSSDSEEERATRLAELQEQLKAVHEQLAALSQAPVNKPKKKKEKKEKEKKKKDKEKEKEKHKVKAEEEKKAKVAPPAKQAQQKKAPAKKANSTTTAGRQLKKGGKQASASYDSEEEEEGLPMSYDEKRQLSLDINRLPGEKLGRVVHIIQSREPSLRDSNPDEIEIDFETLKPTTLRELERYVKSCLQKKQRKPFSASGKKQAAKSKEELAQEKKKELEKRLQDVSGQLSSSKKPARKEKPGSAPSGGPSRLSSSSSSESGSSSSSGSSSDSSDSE

Cc1ncsc1-c1ccc(CNC(=O)[C@@H]2C[C@@H](O)CN2C(=O)[C@@H](NC(=O)OCC(C)(COCCOCCOCCNC(=O)C[C@@H]2N=C(c3ccc(Cl)cc3)c3c(sc(C)c3C)-n3c(C)nnc32)COCCOCCOCCNC(=O)C[C@@H]2N=C(c3ccc(Cl)cc3)c3c(sc(C)c3C)-n3c(C)nnc32)C(C)(C)C)cc1
IC50 [1]: 1.1 nM
DC50 [2]: 1.1 nM
DC50 [3]: 3.3 nM
DC50 [4]: 0.7 nM

CCCOc1cccc(Oc2cc3c(cc2NS(=O)(=O)c2ccc(OC)c(OC)c2)n(C)c(=O)n3C)c1
IC50 [5]: 218 nM

CCCOc1cccc(Oc2cc3c(cc2NS(=O)(=O)c2cccc(C(=O)NCCOCCOCCOCC(=O)N[C@@H](C(=O)N4C[C@@H](O)C[C@@H]4C(=O)NCc4ccc(-c5scnc5C)cc4)C(C)(C)C)c2)n(C)c(=O)n3C)c1
IC50 [5]: 338 nM
Emax [6]: 72%

Cc1ncsc1-c1ccc(CNC(=O)[C@@H]2C[C@@H](O)CN2C(=O)[C@@H](NC(=O)COCCOCCOCCOCCOCCOC(=O)N[C@H](C(=O)N2C[C@H](O)C[C@H]2C(=O)NCc2ccc(-c3scnc3C)cc2)C(C)(C)C)C(C)(C)C)cc1
Kd [7]: 11 nM
DC50 [8]: < 100 nM
EC99 [8]: 10 nM

Cc1cc(Nc2ncc(Cl)c(Nc3ccccc3S(=O)(=O)C(C)C)n2)c(OC(C)C)cc1C1CCN(CC(=O)NCCNc2cccc3c2C(=O)N(C2CCC(=O)N(C(=O)OCCSSCCn4cc(CNC(=O)CC[C@H](NC(=O)c5ccc(NCc6cnc7nc(N)[nH]c(=O)c7n6)cc5)C(=O)O)nn4)C2=O)C3=O)CC1 (stereo not given in full)
IC50 [9]: 465 nM
Emax [10]: 100%
Emax [11]: 100%

CN[C@@H](C)C(=O)N[C@H](C(=O)N1C[C@@H](NC(=O)COCCOCCOCCOCCN2CCN(C/C=C/C(=O)N3CCC[C@@H](n4nc(-c5ccc(Oc6ccccc6)cc5)c5c(N)ncnc54)C3)CC2)C[C@H]1C(=O)N[C@H]1CCCc2ccccc21)C1CCCCC1
Emax [12]: 100%

Cc1ncsc1-c1ccc(CNC(=O)[C@H]2C[C@H](O)CN2C(=O)[C@H](NC(=O)CCCCCCCCCCn2cc(COc3cc4ncnc(Nc5ccc(F)c(Cl)c5)c4cc3NC(=O)/C=C/N3CCCCC3)nn2)C(C)(C)C)cc1
IC50 [13]: 6 nM
IC50 [14]: > 20 nM
DC50 [15]: 3.57 nM
Emax [16]: 91%
inhibition in vivo at 30 mg/kg [17]: 90%

Nc1ncnc2c1c(-c1ccc(Oc3ccccc3)cc1)nn2[C@@H]1CCCN(C(=O)/C=C/CCCCOCCOCCOCCOCCOc2cccc3c2C(=O)N(C2CCC(=O)NC2=O)C3=O)C1 (stereo not given in full)
DC50 [18]: 1.9 nM
Emax [19]: 88%

Cc1ncsc1-c1ccc([C@H](C)NC(=O)[C@@H]2C[C@@H](O)CN2C(=O)[C@@H](NC(=O)COCCCOCCNC(=O)C[C@@H]2N=C(c3ccc(Cl)cc3)c3c(sc(C)c3C)-n3c(C)nnc32)C(C)(C)C)cc1
IC50 [20]: 183 nM
Emax [21]: 100%

Cc1cc(Nc2ncc(Cl)c(Nc3ccccc3S(=O)(=O)C(C)C)n2)c(OC(C)C)cc1C1CCN(CC(=O)NCCNc2cccc3c2C(=O)N(C2CCC(=O)NC2=O)C3=O)CC1 (stereo not given)
IC50 [9]: 16 nM
Emax [22]: 90%

Cc1ncsc1-c1ccc(CNC(=O)[C@@H]2C[C@@H](O)CN2C(=O)[C@@H](NC(=O)COCCCCCOCCOCCCCCOCC(=O)NCCNc2cccc3c2C(=O)N(C2CCC(=O)NC2=O)C3=O)C(C)(C)C)cc1 (stereo not given in full)
DC50 [23]: 200 nM
Emax [24]: 75%

Cc1ncsc1-c1ccc([C@H](C)NC(=O)[C@@H]2C[C@@H](OC(=O)CCCCn3cc(CNC(=O)CC[C@H](NC(=O)c4ccc(NCc5cnc6nc(N)[nH]c(=O)c6n5)cc4)C(=O)O)nn3)CN2C(=O)[C@@H](NC(=O)COCCCOCCNC(=O)C[C@@H]2N=C(c3ccc(Cl)cc3)c3c(sc(C)c3C)-n3c(C)nnc32)C(C)(C)C)cc1
IC50 [20]: 246 nM
Emax [25]: 100%
IC50 [26]: > 10000 nM
